Test results reported in patent EP1908472A1, “Silicon derivatives for PET imaging” (Bayer Schering Pharma Aktiengesellschaft, priority 2006, dated 2008).

assay: Hydrolytic stability of 19F fluorosilanes (hydrolysis to the hydroxy compound) at physiological pH; format: physicochemical; settings: buffer; fraction of intact 19F compound after 6 hours under hydrolytic conditions at pH 7
Protocol: The time dependent degree of hydrolysis of compounds of formula I in which X is a fluorine atom of isotope 19 to compounds of formula I in which X is a hydroxy group was determined at physiological pH (7.0). From the kinetics the hydrolytic halflife (t1/2) measured in hours [h] of compounds of formula I in which X is a fluorine atom of isotope 19 were calculated (Table 1, column 2).
The ratio of the hydrolytic halflifes of compounds of formula I in which X is a fluorine atom of isotope 19 and the radioactive halflife of the 18-F isotope (1.83 hours) is defined as relative stability (Table 1, column 3).
After 6 hours 90% of the 18-F isotope have been decayed.
Compounds of formula I in which X is a fluorine atom of isotope 18 are considered as useful for PET applications if the relative stability of their analogs bearing a fluorine atom of isotope 19 exceed a factor of four and if at least 50% of these compounds remain intact after 6 hours under hydrolytic conditions at pH 7.

| Structure (SMILES) | remaining at 6 h [%] |
| --- | --- |
| CC(C)[Si](F)(c1ccc(CC(=O)O)cc1)C(C)C [5b - F, [4-(Fluoro-diisopropyl-silanyl)-phenyl]-acetic acid] | 82 |
| CC(C)[Si](F)(c1ccc(C(=O)O)cc1)C(C)C [5a - F, 4-(Fluoro-diisopropyl-silanyl)-benzoic acid] | 66 |
| CC(C)C[Si](F)(CC(C)C)c1ccc(C(=O)O)cc1 [5g - F, 4-(Fluoro-diisobutyl-silanyl)-benzoic acid] | 31 |
| CC(C)[Si](F)(c1cccc(CCCO)c1)C(C)C [4d - F, 3-[3-(Fluoro-diisopropyl-silanyl)-phenyl]-propan-1-ol] | 89 |
| CC(C)[Si](F)(c1ccc(CCCO)cc1)C(C)C [4c - F, 3-[4-(Fluoro-diisopropyl-silanyl)-phenyl]-propan-1-ol] | 90 |
| CC(C)C[Si](F)(CC(C)C)c1ccc(CCOC2CCCCO2)cc1 (racemic) [Compound 3h-F, (RS)-Fluoro-diisobutyl-{4-[2-(tetrahydro-pyran-2-yloxy)-ethyl]-phenyl}-silane] | 79 |
| CC(C)[Si](F)(CCCNC(=O)c1ccccc1)C(C)C [22 - F, N-[3-(Fluoro-diisopropyl-silanyl)-propyl]-benzamide] | 83 |
| CC(C)[Si](F)(c1ccc(CO)cc1)C(C)C [4a -F, [4-(Fluoro-diisopropyl-silanyl)-phenyl]-methanol] | 85 |
| CC(C)[Si](F)(c1cccc(CCOC2CCCCO2)c1)C(C)C (racemic) [3e - F, (RS)-Fluoro-diisopropyl-{3-[2-(tetrahydro-pyran-2-yloxy)-ethyl]-phenyl}-silane] | > 95 |
| CC(C)C[Si](F)(CC(C)C)c1ccc(COC2CCCCO2)cc1 (racemic) [Compound 3g-F, (RS)-Fluoro-diisobutyl-[4-(tetrahydro-pyran-2-yloxymethyl)-phenyl]-silane] | 59 |
| CC(C)[Si](F)(c1ccc(CCOC2CCCCO2)cc1)C(C)C (racemic) [3b - F, (RS)-Fluoro-diisopropyl-{4-[2-(tetrahydro-pyran-2-yloxy)-ethyl]-phenyl}-silane] | 94 |
| F[Si](c1ccccc1)(c1ccccc1)c1ccc(CCOC2CCCCO2)cc1 (racemic) [3f - F, (RS)-Fluoro-diphenyl-{4-[2-(tetrahydro-pyran-2-yloxy)-ethyl]-phenyl}-silane] | < 1 |
| CC(C)[Si](F)(c1ccc(CCC(=O)O)cc1)C(C)C [5c - F, 3-[4-(Fluoro-diisopropyl-silanyl)-phenyl]-propionic acid] | 92 |
| CC(C)C[Si](F)(CCCCC(=O)Nc1ccccc1)CC(C)C [30a - 1F, 5-(Fluoro-diisobutyl-silanyl)-pentanoic acid phenylamide] | 71 |
| CC(C)[Si](F)(c1ccc(CCO)cc1)C(C)C [4b - F, 2-[4-(Fluoro-diisopropyl-silanyl)-phenyl]-ethanol] | 84 |
| CC(C)[Si](F)(c1cccc(CCO)c1)C(C)C [4e - F, 2-[3-(Fluoro-diisopropyl-silanyl)-phenyl]-ethanol] | 78 |
| CC(C)[Si](F)(c1cccc(CCC(=O)O)c1)C(C)C [5d - F, 3-[3-(Fluoro-diisopropyl-silanyl)-phenyl]-propionic acid] | 81 |
| CC(C)[Si](F)(c1cccc(CC(=O)O)c1)C(C)C [5e - F, [3-(Fluoro-diisopropyl-silanyl)-phenyl]-acetic acid] | 78 |
| CC(C)C[Si](F)(CC(C)C)c1ccc(CC(=O)O)cc1 [5h - F, [4-(Fluoro-diisobutyl-silanyl)-phenyl]-acetic acid] | 61 |
| CC(C)[Si](F)(c1ccc(COC2CCCCO2)cc1)C(C)C (racemic) [3a - F, (RS)-Fluoro-diisopropyl-[4-(tetrahydro-pyran-2-yloxymethyl)-phenyl]-silane] | 90 |
| CC(C)[Si](F)(c1ccc(CCCOC2CCCCO2)cc1)C(C)C (racemic) [3c - F, (RS)-Fluoro-diisopropyl-{4-[3-(tetrahydro-pyran-2-yloxy)-propyl]-phenyl}-silane] | 95 |
| CC(C)[Si](F)(c1cccc(CCCOC2CCCCO2)c1)C(C)C (racemic) [3d - F, (RS)-Fluoro-diisopropyl-{3-[3-(tetrahydro-pyran-2-yloxy)-propyl]-phenyl}-silane] | > 95 |

same assay, conditions: buffer; hydrolytic halflife, physiological pH (7.0), 19F compound, calculated from the kinetics

| Structure (SMILES) | half-life [h] |
| --- | --- |
| CC(C)[Si](F)(c1ccc(CC(=O)O)cc1)C(C)C [5b - F, [4-(Fluoro-diisopropyl-silanyl)-phenyl]-acetic acid] | 24.7 |
| CC(C)[Si](F)(c1ccc(C(=O)O)cc1)C(C)C [5a - F, 4-(Fluoro-diisopropyl-silanyl)-benzoic acid] | 10.9 |
| CC(C)C[Si](F)(CC(C)C)c1ccc(C(=O)O)cc1 [5g - F, 4-(Fluoro-diisobutyl-silanyl)-benzoic acid] | 3.5 |
| CC(C)[Si](F)(c1cccc(CCCO)c1)C(C)C [4d - F, 3-[3-(Fluoro-diisopropyl-silanyl)-phenyl]-propan-1-ol] | 43.3 |
| CC(C)[Si](F)(c1ccc(CCCO)cc1)C(C)C [4c - F, 3-[4-(Fluoro-diisopropyl-silanyl)-phenyl]-propan-1-ol] | > 100 |
| CC(C)C[Si](F)(CC(C)C)c1ccc(CCOC2CCCCO2)cc1 (racemic) [Compound 3h-F, (RS)-Fluoro-diisobutyl-{4-[2-(tetrahydro-pyran-2-yloxy)-ethyl]-phenyl}-silane] | 19.2 |
| CC(C)[Si](F)(CCCNC(=O)c1ccccc1)C(C)C [22 - F, N-[3-(Fluoro-diisopropyl-silanyl)-propyl]-benzamide] | 33.6 |
| CC(C)[Si](F)(c1ccc(CO)cc1)C(C)C [4a -F, [4-(Fluoro-diisopropyl-silanyl)-phenyl]-methanol] | 28.1 |
| CC(C)[Si](F)(c1cccc(CCOC2CCCCO2)c1)C(C)C (racemic) [3e - F, (RS)-Fluoro-diisopropyl-{3-[2-(tetrahydro-pyran-2-yloxy)-ethyl]-phenyl}-silane] | > 100 |
| CC(C)C[Si](F)(CC(C)C)c1ccc(COC2CCCCO2)cc1 (racemic) [Compound 3g-F, (RS)-Fluoro-diisobutyl-[4-(tetrahydro-pyran-2-yloxymethyl)-phenyl]-silane] | 8.1 |
| CC(C)[Si](F)(c1ccc(CCOC2CCCCO2)cc1)C(C)C (racemic) [3b - F, (RS)-Fluoro-diisopropyl-{4-[2-(tetrahydro-pyran-2-yloxy)-ethyl]-phenyl}-silane] | 76.4 |
| F[Si](c1ccccc1)(c1ccccc1)c1ccc(CCOC2CCCCO2)cc1 (racemic) [3f - F, (RS)-Fluoro-diphenyl-{4-[2-(tetrahydro-pyran-2-yloxy)-ethyl]-phenyl}-silane] | 0.07 |
| CC(C)[Si](F)(c1ccc(CCC(=O)O)cc1)C(C)C [5c - F, 3-[4-(Fluoro-diisopropyl-silanyl)-phenyl]-propionic acid] | 59 |
| CC(C)C[Si](F)(CCCCC(=O)Nc1ccccc1)CC(C)C [30a - 1F, 5-(Fluoro-diisobutyl-silanyl)-pentanoic acid phenylamide] | 13.8 |
| CC(C)[Si](F)(c1ccc(CCO)cc1)C(C)C [4b - F, 2-[4-(Fluoro-diisopropyl-silanyl)-phenyl]-ethanol] | 66.8 |
| CC(C)[Si](F)(c1cccc(CCO)c1)C(C)C [4e - F, 2-[3-(Fluoro-diisopropyl-silanyl)-phenyl]-ethanol] | 23.3 |
| CC(C)[Si](F)(c1cccc(CCC(=O)O)c1)C(C)C [5d - F, 3-[3-(Fluoro-diisopropyl-silanyl)-phenyl]-propionic acid] | 22.2 |
| CC(C)[Si](F)(c1cccc(CC(=O)O)c1)C(C)C [5e - F, [3-(Fluoro-diisopropyl-silanyl)-phenyl]-acetic acid] | 20 |
| CC(C)C[Si](F)(CC(C)C)c1ccc(CC(=O)O)cc1 [5h - F, [4-(Fluoro-diisobutyl-silanyl)-phenyl]-acetic acid] | 8.7 |
| CC(C)[Si](F)(c1ccc(COC2CCCCO2)cc1)C(C)C (racemic) [3a - F, (RS)-Fluoro-diisopropyl-[4-(tetrahydro-pyran-2-yloxymethyl)-phenyl]-silane] | 49.4 |
| CC(C)[Si](F)(c1ccc(CCCOC2CCCCO2)cc1)C(C)C (racemic) [3c - F, (RS)-Fluoro-diisopropyl-{4-[3-(tetrahydro-pyran-2-yloxy)-propyl]-phenyl}-silane] | 99.9 |
| CC(C)[Si](F)(c1cccc(CCCOC2CCCCO2)c1)C(C)C (racemic) [3d - F, (RS)-Fluoro-diisopropyl-{3-[3-(tetrahydro-pyran-2-yloxy)-propyl]-phenyl}-silane] | > 100 |

same assay, conditions: ratio of hydrolytic halflife to radioactive halflife of 18-F (1.83 hours), pH 7.0

| Structure (SMILES) | rel. stability |
| --- | --- |
| CC(C)[Si](F)(c1ccc(CC(=O)O)cc1)C(C)C [5b - F, [4-(Fluoro-diisopropyl-silanyl)-phenyl]-acetic acid] | 13.5 |
| CC(C)[Si](F)(c1ccc(C(=O)O)cc1)C(C)C [5a - F, 4-(Fluoro-diisopropyl-silanyl)-benzoic acid] | 6.1 |
| CC(C)C[Si](F)(CC(C)C)c1ccc(C(=O)O)cc1 [5g - F, 4-(Fluoro-diisobutyl-silanyl)-benzoic acid] | 1.9 |
| CC(C)[Si](F)(c1cccc(CCCO)c1)C(C)C [4d - F, 3-[3-(Fluoro-diisopropyl-silanyl)-phenyl]-propan-1-ol] | 23.7 |
| CC(C)[Si](F)(c1ccc(CCCO)cc1)C(C)C [4c - F, 3-[4-(Fluoro-diisopropyl-silanyl)-phenyl]-propan-1-ol] | > 54.6 |
| CC(C)C[Si](F)(CC(C)C)c1ccc(CCOC2CCCCO2)cc1 (racemic) [Compound 3h-F, (RS)-Fluoro-diisobutyl-{4-[2-(tetrahydro-pyran-2-yloxy)-ethyl]-phenyl}-silane] | 10.7 |
| CC(C)[Si](F)(CCCNC(=O)c1ccccc1)C(C)C [22 - F, N-[3-(Fluoro-diisopropyl-silanyl)-propyl]-benzamide] | 18.4 |
| CC(C)[Si](F)(c1ccc(CO)cc1)C(C)C [4a -F, [4-(Fluoro-diisopropyl-silanyl)-phenyl]-methanol] | 15.4 |
| CC(C)[Si](F)(c1cccc(CCOC2CCCCO2)c1)C(C)C (racemic) [3e - F, (RS)-Fluoro-diisopropyl-{3-[2-(tetrahydro-pyran-2-yloxy)-ethyl]-phenyl}-silane] | > 54.6 |
| CC(C)C[Si](F)(CC(C)C)c1ccc(COC2CCCCO2)cc1 (racemic) [Compound 3g-F, (RS)-Fluoro-diisobutyl-[4-(tetrahydro-pyran-2-yloxymethyl)-phenyl]-silane] | 4.5 |
| CC(C)[Si](F)(c1ccc(CCOC2CCCCO2)cc1)C(C)C (racemic) [3b - F, (RS)-Fluoro-diisopropyl-{4-[2-(tetrahydro-pyran-2-yloxy)-ethyl]-phenyl}-silane] | 41.8 |
| F[Si](c1ccccc1)(c1ccccc1)c1ccc(CCOC2CCCCO2)cc1 (racemic) [3f - F, (RS)-Fluoro-diphenyl-{4-[2-(tetrahydro-pyran-2-yloxy)-ethyl]-phenyl}-silane] | 0.04 |
| CC(C)[Si](F)(c1ccc(CCC(=O)O)cc1)C(C)C [5c - F, 3-[4-(Fluoro-diisopropyl-silanyl)-phenyl]-propionic acid] | 32.2 |
| CC(C)C[Si](F)(CCCCC(=O)Nc1ccccc1)CC(C)C [30a - 1F, 5-(Fluoro-diisobutyl-silanyl)-pentanoic acid phenylamide] | 7.5 |
| CC(C)[Si](F)(c1ccc(CCO)cc1)C(C)C [4b - F, 2-[4-(Fluoro-diisopropyl-silanyl)-phenyl]-ethanol] | 36.5 |
| CC(C)[Si](F)(c1cccc(CCO)c1)C(C)C [4e - F, 2-[3-(Fluoro-diisopropyl-silanyl)-phenyl]-ethanol] | 12.7 |
| CC(C)[Si](F)(c1cccc(CCC(=O)O)c1)C(C)C [5d - F, 3-[3-(Fluoro-diisopropyl-silanyl)-phenyl]-propionic acid] | 12.1 |
| CC(C)[Si](F)(c1cccc(CC(=O)O)c1)C(C)C [5e - F, [3-(Fluoro-diisopropyl-silanyl)-phenyl]-acetic acid] | 10.9 |
| CC(C)C[Si](F)(CC(C)C)c1ccc(CC(=O)O)cc1 [5h - F, [4-(Fluoro-diisobutyl-silanyl)-phenyl]-acetic acid] | 4.8 |
| CC(C)[Si](F)(c1ccc(COC2CCCCO2)cc1)C(C)C (racemic) [3a - F, (RS)-Fluoro-diisopropyl-[4-(tetrahydro-pyran-2-yloxymethyl)-phenyl]-silane] | 27.0 |
| CC(C)[Si](F)(c1ccc(CCCOC2CCCCO2)cc1)C(C)C (racemic) [3c - F, (RS)-Fluoro-diisopropyl-{4-[3-(tetrahydro-pyran-2-yloxy)-propyl]-phenyl}-silane] | 54.6 |
| CC(C)[Si](F)(c1cccc(CCCOC2CCCCO2)c1)C(C)C (racemic) [3d - F, (RS)-Fluoro-diisopropyl-{3-[3-(tetrahydro-pyran-2-yloxy)-propyl]-phenyl}-silane] | > 54.6 |

assay: not given; settings: rats allowed to inhale the gas; shows fast release of fluoride in vivo; cited from earlier work

| Structure (SMILES) | uptake of ^18F in the bone |
| --- | --- |
| C[Si](C)(C)[18F] [^18F-Fluorotrimethylsilane] | extensive uptake of ^18F in the bone |
